In paper PMC8220083 (Frontiers in Pharmacology, 2021):
pIC50: −log10 of the molar value. Several values for one entry are separate records, joined by “and”; a condition that tells them apart may be missing. Identical values can stand only once. Like-named read-outs stand apart in the source and are kept apart here. Values belong to the compound of their own block, whether it stands above or below them.

What was measured:
[1] = target: T1, Human leukocyte elastase (HLE-G) (Homo sapiens, UniProt P08246); test: Inhibition of HLE-G enzymatic activity; type: biochemical; conditions: for pIC50: compound vs. HLE-G (75 µM), 10 min at 37°C, 5 min with substrate; for HLE-G Molar excess: molar excess of compound to HLE-G at IC50
T1 construct: purchased Athens Research & Technology 16-14-051200
T1 sequence (P08246 30-267): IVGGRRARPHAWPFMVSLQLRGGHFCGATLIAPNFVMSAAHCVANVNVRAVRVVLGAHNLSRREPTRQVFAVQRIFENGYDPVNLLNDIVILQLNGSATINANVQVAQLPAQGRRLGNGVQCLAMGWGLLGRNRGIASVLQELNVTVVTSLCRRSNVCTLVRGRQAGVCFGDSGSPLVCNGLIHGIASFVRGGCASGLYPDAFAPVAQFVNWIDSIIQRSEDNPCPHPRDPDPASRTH
Protocol: Inhibition of HLE-G enzymatic activity. Two-fold serial dilutions of HLE-G in 100 µl Tris-buffered saline (pH 7.8) were added to rows of wells of a microtiter plate as previously described ([Bristow et al., 1991]). […] The microtiter plate was incubated for 10 min at 37°C. The HLE-G substrate (Succinyl-L-Ala-L-Ala-L-Ala-p-nitroanilide, Sigma) was added to all wells, and absorbance at 405 nm was detected kinetically at 23°C using an MRX plate reader.

[2] = target: T2, cell surface human leukocyte elastase (HLE-CS) on U937 Clone 10 cells (Homo sapiens, UniProt P08246); test: Cellular adherence to glass (HLE-CS interaction); type: cell-based; conditions: 2,000 U937 cells per well; for HLE-CS Adherent cells: at optimal concentration; for HLE-CS Optimal concentration: optimal adherence concentration
T2 construct: endogenous in cells; host or cells: human U937 Clone 10 cells
T2 sequence (P08246 30-267): T1 sequence (P08246 30-267)
Excerpt: Cellular adherence. […] […] Unattached cells were removed by washing using AIM-V, and attached cells were fixed by application of 4% paraformaldehyde. Attached cells were counted by light microscopy.

[3] = type: in vivo, human; conditions: HIV-1-infected, 8 weekly infusions 120 mg/kg
Protocol: Clinical trial NCT01731691: This clinical trial was a double-blind, randomized study as previously described ([Bristow et al., 2019]). Written informed consent was received from 12 individuals, 8 HIV-1-infected individuals and 4 uninfected controls. Blood was collected weekly at the same time of day at baseline and for 8 subsequent weeks from uninfected, untreated controls and from HIV-1-infected individuals who were treated weekly with Prolastin-C (n = 3) or with placebo (n = 5). […] Inclusion criteria HIV-1 uninfected, untreated controls were the same as for HIV-1 infected subjects excluding HIV-related criteria. Grifols Biotherapeutics contributed a sufficient quantity of Prolastin-C (lot# 26NLK52) for administration of 8 weekly infusions at a dose of 120 mg/kg. The study protocol was approved by Copernicus Group Independent Institutional Review Board, Durham, NC. Drug delivery and blood collection were performed at ACRIA, New York, NY.
Human apolipoproteins measurement. Total cholesterol, high density lipoprotein (HDL), low density lipoprotein (LDL), triglycerides, apolipoprotein E (apoE), and apolipoprotein A1 (apoA1) measurements were performed by ICON Central Laboratory, Farmingdale, NY. Cholesterol, HDL, and triglycerides were measured using the Chol2, HDLC3, TRIGL methods on the Roche/Hitachi cobas c analyzer. LDL was calculated using the formula total cholesterol – HDL – (triglycerides/5). ApoE was quantitated using the Kamiya Biomedical Co. K-assay immunoturbidimetric method. ApoA1 was quantitated using the Siemens N antisera method by immunonephelometry on the BN II and BN ProSpec System. Total apoB and apoB48 measurements were contracted by ICON Central Laboratory to Nexelis (formerly Pacific Biomarkers). Total apoB was measured in serum by immunoturbidimetry using the Roche Modular P instrument and Goat polyclonal antibody specific for human apoB. ApoB48 wase measured by sandwich ELISA using a capture monoclonal antibody and detection using a biotin-conjugated polyclonal antibody followed by HRP-conjugated Streptavidin and addition of a chromogenic substrate using a SoftMax Pro ELISA plate reader. ApoB100 was calculated as total apoB minus apoB48. Cholesterol, triglycerides, HDL, LDL, apoE and apoA1 were measured by ICON Central Laboratory, Farmingdale, NY.

[4] = Diet-induced obesity (DIO) mouse model, lipoprotein levels; type: in vivo, C57BL/6J mice; conditions: 60% fat diet, daily oral gavage; for LDL levels: after 3 weeks, ezetimibe 10 mg/kg, Alphataxin 5 mg/kg; for LDL levels / triglyceride levels: vs vehicle control; for triglyceride levels: weeks 3, 6, 8
Protocol: Animal Studies. Animal studies were performed by Jackson Laboratory (Bar Harbor, ME), an OLAW-Assured and AAALAC accredited institution. All research was reviewed and approved by the Institutional Animal Care and Use Committee (IACUC) prior to commencing. The study used 16–17 weeks old male DIO C57BL/6J mice that had been maintained on a 10% (control) or 60% high-fat diet. […] Treatment was delivered by daily oral gavage at the same time of day for 12 weeks. Blood was collected by retro-orbital bleed every 3 weeks for measurement of total cholesterol, LDL, HDL, triglycerides, […] free fatty acids and glucose using the Beckman Coulter AU680 Chemistry System.
Food consumption was monitored twice weekly, and body weight was monitored weekly. As mice gained weight on the 60% high-fat diet during the study, dosing was adjusted accordingly. Mice were monitored for adverse effects (e.g., labored breathing, aberrant weight change). Three mice were lost during the study. […] The mice lost in the ezetimibe group were due to a severe bite wound and an unknown causes. The mouse lost in the Alphataxin group was due to an abnormal amount of gas in the stomach attributed to a gavaging error.

[5] = test system: Leishmania amazonensis promastigotes; set-up: method as in Andrade-Neto et al., 2016; conditions: ref Andrade-Neto et al., 2016; read-out: IC50 for killing Leishmania amazonensis promastigotes; cited from earlier work
[6] = set-up: method as in Nissen et al., 2016; conditions: ref Nissen et al., 2016, cited from earlier work
Lactobacillus spp. = test system: Lactobacillus spp.; set-up: method as in Catry et al., 2015; conditions: ref Catry et al., 2015; cited from earlier work
E. coli DH5-Alpha = test: Kirby-Bauer Disk Test of antibiotic activity; type: cell-based; conditions: for diameter of zone of inhibition: 16 h at 37°C; for inhibitory dose: disk test
Protocol: Antibiotic activity. […] D-Ampicillin-sensitive E. coli DH5-Alpha was cultured overnight in LB broth, and the cell concentration was calibrated using McFarland Turbidity Standard […] for <300 × 10^6 CFU. At this concentration of cells, bacteria were spread on Mueller-Hinton agar plates. […] After incubation for 16 h at 37°C, plates were examined for zones of inhibition.

U937 Clone 10 cells = test: Receptor polarization and endocytosis of SHIV; type: cell-based, human; conditions: for SHIV localization: cells preconditioned 15 min 37°C
Protocol: Receptor Polarization and Endocytosis. To Eppendorf tubes that been precoated with RPMI-1640 containing 10% fetal bovine serum to prevent attachment, were added 250 μl containing 5 × 10^5 U937 Clone 10 cells.
U937 Clone 10 cells were pulsed with SHIV particles (30 ng p27 or p24 per 10^6 cells) for 2 h at 2°C, a circumstance that allows binding, but prevents endocytosis. Alternatively, cells were pulsed with virus for 2 h at 37°C, a circumstance that allows binding and endocytosis ([Bristow et al., 2012]). Following pulsing for 2 h, cells were pelleted, resuspended in AIM-V and allowed to adhere to Alcian blue coated microscope slides for 8 min at 4°C, washed, and fixed using 4% paraformaldehyde as previously described ([Frank et al., 2002]). The presence of AT-2 virus in test cells was detected using dodecameric human CD4-IgG1 provided by the Laboratory of Immunoregulation, NIAID, NIH. This reagent specifically recognizes conformationally intact HIV/SIV envelope gp120. CD4-IgG1 was detected using rabbit anti-human IgG conjugated with horse radish peroxidase (SigmaAldrich). CD4-IgG-labeled cells were coupled to Oregon 488 fluorochrome using the tyramide signal amplification system (Life Science Products, Boston, MA, United States). In some cases, cells stained on slides were permeabilized using 0.05% saponin during the blocking step and further stained with the nuclear staining dye, 4′,6-diamidino-2-phenylindole (DAPI), mounted, and examined by epifluorescence microscopy using a Zeiss Axioplan to detect positive and negative reactions. Representative samples of positive and negative reactions were subsequently captured by confocal microscopy using a Perkin Elmer Operetta High Content Imaging System. Cells were analyzed by confocal microscopy using 2 μm scanning from the attached surface toward the unattached surface.

- pIC50 [1]: 3.63
- HLE-G Molar excess [1]: 3.1
- HLE-CS Adherent cells [2]: 33 ± 4
- HLE-CS Optimal concentration [2]: 1 nM
Compound: C[C@H]1[C@H](NC(=O)/C(=N\OC(C)(C)C(=O)O)c2csc(N)n2)C(=O)N1S(=O)(=O)O [Aztreonam]

- HLE-CS Adherent cells [2]: 54 ± 20
- HLE-CS Optimal concentration [2]: 1 nM
Compound: CC1(C)S[C@@H]2[C@H](NC(=O)[C@H](N)c3ccc(O)cc3)C(=O)N2[C@H]1C(=O)O [Amoxicillin]

- pIC50 [1]: 3.78
- HLE-G Molar excess [1]: 2.2
- HLE-CS Adherent cells [2]: 34 ± 8
- HLE-CS Optimal concentration [2]: 1 nM
Compound: CO/N=C(\C(=O)N[C@@H]1C(=O)N2C(C(=O)O)=C(COC(N)=O)CS[C@H]12)c1ccco1 [Cefuroxine, Cefuroxime]

- pIC50 [1]: 3.58
- HLE-G Molar excess [1]: 3.5
- HLE-CS Adherent cells [2]: 30 ± 4
- HLE-CS Optimal concentration [2]: 10 nM
Compound: CC1(C)S[C@@H]2[C@H](NC(=O)COc3ccccc3)C(=O)N2[C@H]1C(=O)O [Pen V, Penicillin V]

Compound: Prolastin-C: sterile plasma-purified α1PI preparation from Grifols, lot# 26NLK52, infused weekly at 120 mg/kg
- HDL levels [3]: decreased from above normal to below normal levels
- apoA1 levels [3]: decreased from above normal to below normal levels
- apoB48 levels [3]: decreased from above normal to below normal levels
- apoB100 levels [3]: did not significantly decrease
- apoE levels [3]: decreased from above normal to normal levels
- total cholesterol levels [3]: decreased from above normal to normal levels
- triglycerides levels [3]: decreased from above normal to normal levels
- LDL levels ([3]; vs placebo arm): significantly lower than in the placebo arm

- pIC50 [1]: 3.75
- HLE-G Molar excess [1]: 2.4
- HLE-CS Adherent cells [2]: 52 ± 6
- HLE-CS Optimal concentration [2]: 100 nM
Compound: C[C@@H](O)[C@H]1C(=O)N2C(C(=O)O)=C(S[C@@H]3CN[C@H](CNS(N)(=O)=O)C3)[C@H](C)[C@H]12 [Doripenem]

- HLE-CS Adherent cells [2]: 27 ± 10
Compound: CC1=C(C(=O)O)N2C(=O)[C@@H](NC(=O)[C@H](N)c3ccccc3)[C@H]2SC1 [Cephalexin]

- pIC50 [1]: 3.56
- HLE-G Molar excess [1]: 3.7
- HLE-CS Adherent cells [2]: 40 ± 3
- HLE-CS Optimal concentration [2]: 100 nM
Compound: O=C1[C@H](CC[C@H](O)c2ccc(F)cc2)[C@@H](c2ccc(O)cc2)N1c1ccc(F)cc1 [Ezetimibe]
- LDL levels [4]: significantly decreased
- triglyceride levels [4]: did not
- pIC50 [5]: 4.52
- effectiveness in lowering LDL levels vs PCSK9 inhibitors ([6]; p < 0.001): significantly less effective
- individuals with muscle symptoms [6]: 28%
- effect on intestinal microbiome (Lactobacillus spp.): increasing the Lactobacillus spp.

Compound: CC1(C)S[C@@H]2[C@H](NC(=O)[C@H](N)c3ccccc3)C(=O)N2[C@H]1C(=O)O [D-Ampicillin]
- diameter of zone of inhibition (E. coli DH5-Alpha; 0.005 mM): 1.4 cm
- diameter of zone of inhibition (E. coli DH5-Alpha; 0.5 mM): 3.8 cm
- diameter of zone of inhibition (E. coli DH5-Alpha; 5 mM (Figure 2 legend)): 3.0 cm
- diameter of zone of inhibition (E. coli DH5-Alpha; 50 mM (Figure 2 legend)): 3.8 cm
- inhibitory dose (E. coli DH5-Alpha): ≥ 0.005 mM and ≥ 1.75 μg/ml

- MIC (E. coli DH5-Alpha; extrapolated from 10-fold greater minimum inhibitory dose than D-ampicillin): ≥ 80 µg/mL
Compound: CC1(C)S[C@@H]2[C@H](NC(=O)[C@@H](N)c3ccccc3)C(=O)N2[C@H]1C(=O)O [Alphataxin]
- antibiotic effectiveness against E. coli (E. coli DH5-Alpha): not an effective antibiotic against E. coli
- diameter of zone of inhibition (E. coli DH5-Alpha; 0.05 mM): 1.5 cm
- diameter of zone of inhibition (E. coli DH5-Alpha; 0.5 mM): 2.8 cm
- diameter of zone of inhibition (E. coli DH5-Alpha; 5 mM (Figure 2 legend)): 1.5 cm
- diameter of zone of inhibition (E. coli DH5-Alpha; 50 mM (Figure 2 legend)): 2.8 cm
- inhibitory dose (E. coli DH5-Alpha): ≥ 0.05 mM and ≥ 17.5 μg/ml
- cellular locomotion and endocytosis (U937 Clone 10 cells): mimics α1PI activity by binding to HLE-CS and inducing cellular locomotion and endocytosis
- SHIV localization (U937 Clone 10 cells; SHIV 2 h at 2°C): SHIV detected only on the exterior plasma membrane of polarized cells, never internalized into the cells
- SHIV localization (U937 Clone 10 cells; SHIV 2 h at 37°C): SHIV was detected internal to the cells
- LDL levels [4]: significantly decreased
- LDL lowering compared with ezetimibe ([4]; p = 0.90): equivalent to ezetimibe
- triglyceride levels [4]: significantly lowered

- pIC50 [1]: 3.64
- HLE-G Molar excess [1]: 3.1
- HLE-CS Adherent cells [2]: 26 ± 9
- HLE-CS Optimal concentration [2]: 1 nM
Compound: Cc1onc(-c2c(Cl)cccc2Cl)c1C(=O)N[C@@H]1C(=O)N2[C@@H]1SC(C)(C)[C@@H]2C(=O)O [Dicloxacillin]

- pIC50 [1]: 3.69
- HLE-G Molar excess [1]: 2.7
- HLE-CS Adherent cells [2]: 23 ± 4
- HLE-CS Optimal concentration [2]: 10 nM
Compound: C[C@@H](O)[C@H]1C(=O)N2C(C(=O)O)=C([C@H]3CCCO3)S[C@H]12 [Faropenem]
